Measured values: the supplement of paper PMC12698765
Where a name gives a salt, the structure may show the parent alone. ± gives the standard deviation of the averaged measurements.

Columns and labels:
[1] = system: 409B2 hiPSC (iCRISPR Cas9, FRMD7 editing); experiment: cell survival relative to solvent control (fold (ratio to mock)); higher = more surviving cells
Experimental: (§1)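 Subset screen of 55 drugs tested at 5 concentrations around the effective screening dose, in 409B2 iCRISPR Cas9 hiPSCs editing FRMD7 with a ssDNA donor. Drugs were applied for 24 h. Viability was read by resazurin and editing outcomes by amplicon sequencing (HDR, NHEJ <2 bp microhomology, MMEJ ≥2 bp microhomology). Values are relative to solvent mock controls; two biological replicates.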

[2] = system: 409B2 hiPSC (iCRISPR Cas9, FRMD7 editing); experiment: HDR (precise edit) frequency relative to solvent control (fold (ratio to mock)); higher = more homology-directed repair outcomes
Experimental: as §1

[3] = system: 409B2 hiPSC (iCRISPR Cas9, FRMD7 editing); experiment: NHEJ-attributed indel frequency relative to solvent control (fold (ratio to mock)); higher = more NHEJ outcomes
Experimental: as §1

[4] = system: 409B2 hiPSC (iCRISPR Cas9, FRMD7 editing); experiment: MMEJ-attributed deletion frequency relative to solvent control (fold (ratio to mock)); higher = more MMEJ outcomes
Experimental: as §1

Molecule CCN1CCN(Cc2ccc(Nc3ncc(F)c(-c4cc(F)c5nc(C)n(C(C)C)c5c4)n3)nc2)CC1 (in EtOH) has a cell survival ([1]; 2000 nM) of 0.514, a cell survival ([1]; 5000 nM) of -0.00651 and a cell survival ([1]; 10000 nM) of -0.00445. The cell survival ([1]; 20000 nM) was -0.00662, the cell survival ([1]; 50000 nM) was -0.00233 and the HDR ([2]; 2000 nM) was 0.589 ± 0.76. For the same molecule, the HDR ([2]; 5000 nM) was 0.0594 ± 0.017, the HDR ([2]; 10000 nM) was 0.0558 ± 0.0014 and the HDR ([2]; 20000 nM) was 0.0719 ± 0.015. For the same molecule, the HDR ([2]; 50000 nM) was 0.0788 ± 0.0049, the NHEJ-attributed indel frequency ([3]; 2000 nM) was 0.504 ± 0.61 and the NHEJ-attributed indel frequency ([3]; 5000 nM) was 0.11 ± 0.075. For the same molecule, the NHEJ-attributed indel frequency ([3]; 10000 nM) was 0.157 ± 0.018, the NHEJ-attributed indel frequency ([3]; 20000 nM) was 0.0938 ± 0.058 and the NHEJ-attributed indel frequency ([3]; 50000 nM) was 0.0987 ± 0.029. For the same molecule, the MMEJ-attributed deletion frequency ([4]; 2000 nM) was 0.565 ± 0.58, the MMEJ-attributed deletion frequency ([4]; 5000 nM) was 0.159 ± 0.15 and the MMEJ-attributed deletion frequency ([4]; 10000 nM) was 0.229 ± 0.044. For the same molecule, the MMEJ-attributed deletion frequency ([4]; 20000 nM) was 0.109 ± 0.062 and the MMEJ-attributed deletion frequency ([4]; 50000 nM) was 0.0743 ± 0.0014.

For O=C1CN(/N=C/c2ccc(-c3ccc([N+](=O)[O-])cc3)o2)C(=O)N1 [Dantrolene, sodium salt] (in DMSO), the cell survival ([1]; 2000 nM) was 0.934, the cell survival ([1]; 5000 nM) was 1.39 and the cell survival ([1]; 10000 nM) was 1.14. It also gave a cell survival ([1]; 20000 nM) of 1.33, a cell survival ([1]; 50000 nM) of 1.33 and an HDR ([2]; 2000 nM) of 1.04 ± 0.091. For the same molecule, the HDR ([2]; 5000 nM) was 0.873 ± 0.12, the HDR ([2]; 10000 nM) was 0.851 ± 0.068 and the HDR ([2]; 20000 nM) was 0.547 ± 0.039. It also gave an HDR ([2]; 50000 nM) of 0.508 ± 0.039, an NHEJ-attributed indel frequency ([3]; 2000 nM) of 0.941 ± 0.052 and an NHEJ-attributed indel frequency ([3]; 5000 nM) of 0.9996 ± 0.0056. The NHEJ-attributed indel frequency ([3]; 10000 nM) was 1.06 ± 0.0076, the NHEJ-attributed indel frequency ([3]; 20000 nM) was 1.199 ± 0.0027 and the NHEJ-attributed indel frequency ([3]; 50000 nM) was 1.24 ± 0.034. For the same molecule, the MMEJ-attributed deletion frequency ([4]; 2000 nM) was 1.09 ± 0.25, the MMEJ-attributed deletion frequency ([4]; 5000 nM) was 0.966 ± 0.099 and the MMEJ-attributed deletion frequency ([4]; 10000 nM) was 0.9399 ± 0.0032. The MMEJ-attributed deletion frequency ([4]; 20000 nM) was 0.997 ± 0.048 and the MMEJ-attributed deletion frequency ([4]; 50000 nM) was 0.979 ± 0.13.

CNCc1ccc(-c2[nH]c3cc(F)cc4c3c2CCNC4=O)cc1 [Rucaparib (free base)] (in DMSO) was tested, and the cell survival ([1]; 20 nM) was 0.789, the cell survival ([1]; 50 nM) was 0.744 and the cell survival ([1]; 100 nM) was 0.541. The cell survival ([1]; 200 nM) was 0.487, the cell survival ([1]; 500 nM) was 0.291 and the HDR ([2]; 20 nM) was 1.13 ± 0.035. The HDR ([2]; 50 nM) was 1.302 ± 0.0046, the HDR ([2]; 100 nM) was 1.31 ± 0.071 and the HDR ([2]; 200 nM) was 1.32 ± 0.17. It also gave an HDR ([2]; 500 nM) of 1.26 ± 0.037, an NHEJ-attributed indel frequency ([3]; 20 nM) of 0.952 ± 0.015 and an NHEJ-attributed indel frequency ([3]; 50 nM) of 0.924 ± 0.013. For the same molecule, the NHEJ-attributed indel frequency ([3]; 100 nM) was 0.876 ± 0.034, the NHEJ-attributed indel frequency ([3]; 200 nM) was 0.853 ± 0.045 and the NHEJ-attributed indel frequency ([3]; 500 nM) was 0.787 ± 0.054. The MMEJ-attributed deletion frequency ([4]; 20 nM) was 1.04 ± 0.017, the MMEJ-attributed deletion frequency ([4]; 50 nM) was 0.892 ± 0.2 and the MMEJ-attributed deletion frequency ([4]; 100 nM) was 0.93 ± 0.079. The MMEJ-attributed deletion frequency ([4]; 200 nM) was 0.869 ± 0.16 and the MMEJ-attributed deletion frequency ([4]; 500 nM) was 0.918 ± 0.076.

CCN1CCC[C@H]1CNC(=O)c1cc(S(N)(=O)=O)ccc1OC [Levosulpiride] (in DMSO) was tested, and the cell survival ([1]; 2000 nM) was 1.06, the cell survival ([1]; 5000 nM) was 1.32 and the cell survival ([1]; 10000 nM) was 1.26. It also gave a cell survival ([1]; 20000 nM) of 1.18, a cell survival ([1]; 50000 nM) of 1.33 and an HDR ([2]; 2000 nM) of 1.05 ± 0.047. It also gave an HDR ([2]; 5000 nM) of 1.07 ± 0.081, an HDR ([2]; 10000 nM) of 1.13 ± 0.019 and an HDR ([2]; 20000 nM) of 1.06 ± 0.13. The HDR ([2]; 50000 nM) was 1.09 ± 0.081, the NHEJ-attributed indel frequency ([3]; 2000 nM) was 0.98 ± 0.013 and the NHEJ-attributed indel frequency ([3]; 5000 nM) was 0.9952 ± 0.0031. For the same molecule, the NHEJ-attributed indel frequency ([3]; 10000 nM) was 0.9818 ± 0.0064, the NHEJ-attributed indel frequency ([3]; 20000 nM) was 1 ± 0.012 and the NHEJ-attributed indel frequency ([3]; 50000 nM) was 0.978 ± 0.038. For the same molecule, the MMEJ-attributed deletion frequency ([4]; 2000 nM) was 1.07 ± 0.1, the MMEJ-attributed deletion frequency ([4]; 5000 nM) was 1.06 ± 0.0093 and the MMEJ-attributed deletion frequency ([4]; 10000 nM) was 0.994 ± 0.19. The MMEJ-attributed deletion frequency ([4]; 20000 nM) was 1 ± 0.04 and the MMEJ-attributed deletion frequency ([4]; 50000 nM) was 1 ± 0.04.

With CN(C)C(=O)C(CCN1CCC(O)(c2ccc(Cl)cc2)CC1)(c1ccccc1)c1ccccc1 [Loperamide HCl] (in DMSO) the cell survival ([1]; 2000 nM) was 0.928, the cell survival ([1]; 5000 nM) was 1.24 and the cell survival ([1]; 10000 nM) was 0.607. The cell survival ([1]; 20000 nM) was -0.00906, the cell survival ([1]; 50000 nM) was -0.00864 and the HDR ([2]; 2000 nM) was 0.9969 ± 0.0053. The HDR ([2]; 5000 nM) was 1.01 ± 0.044, the HDR ([2]; 10000 nM) was 0.873 ± 0.035 and the HDR ([2]; 20000 nM) was 0.136 ± 0.067. It also gave an HDR ([2]; 50000 nM) of 0.138 ± 0.11, an NHEJ-attributed indel frequency ([3]; 2000 nM) of 0.923 ± 0.077 and an NHEJ-attributed indel frequency ([3]; 5000 nM) of 0.9735 ± 0.0074. For the same molecule, the NHEJ-attributed indel frequency ([3]; 10000 nM) was 0.928 ± 0.06, the NHEJ-attributed indel frequency ([3]; 20000 nM) was 0.324 ± 0.053 and the NHEJ-attributed indel frequency ([3]; 50000 nM) was 0.186 ± 0.085. For the same molecule, the MMEJ-attributed deletion frequency ([4]; 2000 nM) was 1.31 ± 0.23, the MMEJ-attributed deletion frequency ([4]; 5000 nM) was 1.1 ± 0.094 and the MMEJ-attributed deletion frequency ([4]; 10000 nM) was 0.998 ± 0.032. For the same molecule, the MMEJ-attributed deletion frequency ([4]; 20000 nM) was 0.465 ± 0.16 and the MMEJ-attributed deletion frequency ([4]; 50000 nM) was 0.224 ± 0.07.

Work on CCCCCCCCCCCCCC(=O)O [Myristic Acid] (in DMSO) yielded a cell survival ([1]; 20 nM) of 1.01, a cell survival ([1]; 50 nM) of 1.23 and a cell survival ([1]; 100 nM) of 1.07. It also gave a cell survival ([1]; 200 nM) of 1.25, a cell survival ([1]; 500 nM) of 1.49 and an HDR ([2]; 20 nM) of 1.04 ± 0.025. The HDR ([2]; 50 nM) was 1.03 ± 0.072, the HDR ([2]; 100 nM) was 1.034 ± 0.01 and the HDR ([2]; 200 nM) was 1.07 ± 0.019. The HDR ([2]; 500 nM) was 1.1 ± 0.064, the NHEJ-attributed indel frequency ([3]; 20 nM) was 0.9964 ± 0.0076 and the NHEJ-attributed indel frequency ([3]; 50 nM) was 1.0053 ± 2.8e-05. It also gave an NHEJ-attributed indel frequency ([3]; 100 nM) of 1.016 ± 0.003, an NHEJ-attributed indel frequency ([3]; 200 nM) of 0.981 ± 0.024 and an NHEJ-attributed indel frequency ([3]; 500 nM) of 0.967 ± 0.0099. The MMEJ-attributed deletion frequency ([4]; 20 nM) was 0.977 ± 0.13, the MMEJ-attributed deletion frequency ([4]; 50 nM) was 0.921 ± 0.13 and the MMEJ-attributed deletion frequency ([4]; 100 nM) was 1.02 ± 0.2. It also gave an MMEJ-attributed deletion frequency ([4]; 200 nM) of 1.1 ± 0.051 and an MMEJ-attributed deletion frequency ([4]; 500 nM) of 1.03 ± 0.099.
